Results as given in patent US11331369B2, “Endoparasitic depsipeptides” (Zoetis Services LLC, priority 2017, dated 2022).

Legend:
Type in all cases: cell-based
[1] = test system: microfilariae of Dirofilaria immitis; experiment: Dirofilaria immitis, Microfilaria (DiMF) In vitro Assay; conditions: 72 h, read-out: DiMF Minimum Effective Dose (MED), approximately 72 hours incubation, microfilariae assessed for survival or paralysis
[2] = test system: 4th stage larvae (L4) of Dirofilaria immitis; experiment: Dirofilaria immitis, L4 Stage (DiL4) In Vitro Assay; conditions: Dirofilaria immitis, 72 h, read-out: DiL4 Minimum Effective Dose (MED), approximately 72 hours incubation; L4 larvae assessed for survival or paralysis
[3] = test system: third stage larvae of Haemonchus contortus; experiment: Haemonchus contortus L3 (HcL3) Assay; conditions: 96 h, read-out: HcL3 Minimum Effective Dose (MED)

Compound	minimal effective concentration [1] [µM]	minimal effective concentration [2] [µM]	minimal effective concentration [3] [µM]
CC(C)C[C@H]1C(=O)O[C@H](Cc2ccc(Cn3cc(Br)cn3)cc2)C(=O)N(C)[C@@H](CC(C)C)C(=O)O[C@H](C)C(=O)N(C)[C@@H](CC(C)C)C(=O)O[C@H](Cc2ccccc2)C(=O)N(C)[C@@H](CC(C)C)C(=O)O[C@H](C)C(=O)N1C [Example 2-22, (3S,6R,9S,12R,15S,18R,21S,24R)-6-benzyl-18-(4-((4-bromo-1H-pyrazol-1-yl)methyl)benzyl)-3,9,15,21-tetraisobutyl-4,10,12,16,22,24-hexamethyl-1,7,13,19-tetraoxa-4,10,16,22-tetraazacyclotetracosan-2,5,8,11,14,17,20,23-octaone]	0.001 to 0.01	0.0001 to 0.001	1 to 10
CC(C)C[C@H]1C(=O)O[C@H](Cc2ccc(Cn3cc(F)cn3)cc2)C(=O)N(C)[C@@H](CC(C)C)C(=O)O[C@H](C)C(=O)N(C)[C@@H](CC(C)C)C(=O)O[C@H](Cc2ccccc2)C(=O)N(C)[C@@H](CC(C)C)C(=O)O[C@H](C)C(=O)N1C [Example 2-28, (3S,6R,9S,12R,15S,18R,21S,24R)-6-benzyl-18-(4-((4-fluoro-1H-pyrazol-1-yl)methyl)benzyl)-3,9,15,21-tetraisobutyl-4,10,12,16,22,24-hexamethyl-1,7,13,19-tetraoxa-4,10,16,22-tetraazacyclotetracosan-2,5,8,11,14,17,20,23-octaone]	0.001 to 0.01	0.0001 to 0.001	1 to 10
C#Cc1cnn(Cc2ccc(C[C@H]3OC(=O)[C@H](CC(C)C)N(C)C(=O)[C@@H](C)OC(=O)[C@H](CC(C)C)N(C)C(=O)[C@@H](Cc4ccccc4)OC(=O)[C@H](CC(C)C)N(C)C(=O)[C@@H](C)OC(=O)[C@H](CC(C)C)N(C)C3=O)cc2)c1 [Example 2-51, (3S,6R,9S,12R,15S,18R,21S,24R)-6-benzyl-18-(4-((4-ethynyl-1H-pyrazol-1-yl)methyl)benzyl)-3,9,15,21-tetraisobutyl-4,10,12,16,22,24-hexamethyl-1,7,13,19-tetraoxa-4,10,16,22-tetraazacyclotetracosan-2,5,8,11,14,17,20,23-octaone]	0.001 to 0.01	0.0001 to 0.001	1 to 10
CC(C)C[C@H]1C(=O)O[C@H](Cc2ccc(Cn3nccc3C3CC3)cc2)C(=O)N(C)[C@@H](CC(C)C)C(=O)O[C@H](C)C(=O)N(C)[C@@H](CC(C)C)C(=O)O[C@H](Cc2ccccc2)C(=O)N(C)[C@@H](CC(C)C)C(=O)O[C@H](C)C(=O)N1C [Example 2-66, (3S,6R,9S,12R,15S,18R,21S,24R)-6-benzyl-18-(4-((5-cyclopropyl-1H-pyrazol-1-yl)methyl)benzyl)-3,9,15,21-tetraisobutyl-4,10,12,16,22,24-hexamethyl-1,7,13,19-tetraoxa-4,10,16,22-tetraazacyclotetracosan-2,5,8,11,14,17,20,23-octaone]	0.001 to 0.01	0.0001 to 0.001	1 to 10
CC(C)C[C@H]1C(=O)O[C@H](Cc2ccc(Cn3nccc3C(C)C)cc2)C(=O)N(C)[C@@H](CC(C)C)C(=O)O[C@H](C)C(=O)N(C)[C@@H](CC(C)C)C(=O)O[C@H](Cc2ccccc2)C(=O)N(C)[C@@H](CC(C)C)C(=O)O[C@H](C)C(=O)N1C [Example 2-69, (3S,6R,9S,12R,15S,18R,21S,24R)-6-benzyl-3,9,15,21-tetraisobutyl-18-(4-((5-isopropyl-1H-pyrazol-1-yl)methyl)benzyl)-4,10,12,16,22,24-hexamethyl-1,7,13,19-tetraoxa-4,10,16,22-tetraazacyclotetracosan-2,5,8,11,14,17,20,23-octaone]	0.001 to 0.01	0.0001 to 0.001	1 to 10
CC(C)C[C@H]1C(=O)O[C@H](Cc2ccc(Cn3cnc(Br)c3)cc2)C(=O)N(C)[C@@H](CC(C)C)C(=O)O[C@H](C)C(=O)N(C)[C@@H](CC(C)C)C(=O)O[C@H](Cc2ccc(Cn3cnc(Br)c3)cc2)C(=O)N(C)[C@@H](CC(C)C)C(=O)O[C@H](C)C(=O)N1C [Example 6-12, (3S,6R,9S,12R,15S,18R,21S,24R)-6,18-bis(4-((4-bromo-1H-imidazol-1-yl)methyl)benzyl)-3,9,15,21-tetraisobutyl-4,10,12,16,22,24-hexamethyl-1,7,13,19-tetraoxa-4,10,16,22-tetraazacyclotetracosan-2,5,8,11,14,17,20,23-octaone]	0.001 to 0.01	≤ 0.0001	1 to 10
CC(C)C[C@H]1C(=O)O[C@H](Cc2cccc(Cn3ccnc3Cl)c2)C(=O)N(C)[C@@H](CC(C)C)C(=O)O[C@H](C)C(=O)N(C)[C@@H](CC(C)C)C(=O)O[C@H](Cc2ccc(Cn3ccnc3Cl)cc2)C(=O)N(C)[C@@H](CC(C)C)C(=O)O[C@H](C)C(=O)N1C [Example 7-9, (3S,6R,9S,12R,15S,18R,21S,24R)-6-(3-((2-chloro-1H-imidazol-1-yl)methyl)benzyl)-18-(4-((2-chloro-1H-imidazol-1-yl)methyl)benzyl)-3,9,15,21-tetraisobutyl-4,10,12,16,22,24-hexamethyl-1,7,13,19-tetraoxa-4,10,16,22-tetraazacyclotetracosan-2,5,8,11,14,17,20,23-octaone]	0.001 to 0.01	0.0001 to 0.001	1 to 10
CC(C)C[C@H]1C(=O)O[C@H](Cc2ccc(Cn3ccnc3Br)cc2)C(=O)N(C)[C@@H](CC(C)C)C(=O)O[C@H](C)C(=O)N(C)[C@@H](CC(C)C)C(=O)O[C@H](Cc2ccccc2)C(=O)N(C)[C@@H](CC(C)C)C(=O)O[C@H](C)C(=O)N1C [Example 8-3, (3S,6R,9S,12R,15S,18R,21S,24R)-6-benzyl-18-[[4-[(2-bromoimidazol-1-yl)methyl]phenyl]methyl]-3,9,15,21-tetraisobutyl-4,10,12,16,22,24-hexamethyl-1,7,13,19-tetraoxa-4,10,16,22-tetrazacyclotetracosane-2,5,8,11,14,17,20,23-octaone]	0.001 to 0.01	0.0001 to 0.001	1 to 10
CC(C)C[C@H]1C(=O)O[C@H](Cc2ccc(Cn3cnc(Br)c3)cc2)C(=O)N(C)[C@@H](CC(C)C)C(=O)O[C@H](C)C(=O)N(C)[C@@H](CC(C)C)C(=O)O[C@H](Cc2ccccc2)C(=O)N(C)[C@@H](CC(C)C)C(=O)O[C@H](C)C(=O)N1C [Example 8-15, (3S,6R,9S,12R,15S,18R,21S,24R)-6-benzyl-18-(4-((4-bromo-1H-imidazol-1-yl)methyl)benzyl)-3,9,15,21-tetraisobutyl-4,10,12,16,22,24-hexamethyl-1,7,13,19-tetraoxa-4,10,16,22-tetraazacyclotetracosan-2,5,8,11,14,17,20,23-octaone]	0.001 to 0.01	0.0001 to 0.001	1 to 10
